The subject of data set [1] is mouse model of hyperglycemia. The experiment in a line: Oral glucose tolerance test. The data set is classed as in vivo, mice. The source says: Type II diabetes is characterized by high blood glucose level in the presence of normal amounts of insulin. Animal models of type II diabetes involve administering a high level of glucose and measuring blood glucose level and the ability of the experimental animal to maintain glucose homeostasis over time. Several pharmacological structural classes can effectively regulate this hyperglycemic response including sulfonylureas, thiazoladinediones (PPARγ agonists; glitazones) or metformin (glucophage). These drug classes are also clinically approved for use in humans. In the current study, a mouse model of hyperglycemia has been established by administering high level of glucose to mice.
Glucose was formulated in water at a concentration of 150 mg/ml and dosed at a volume of 10 ml/kg to produce a dose of 1.5 g/kg. Glucose was measured using the Ascensia II Elite XL glucose monitor (Bayer). Glucose was measured by taking a small (2 mm) section off the tip of the tail, bleed onto glucose test strip. Data for each time point was analyzed by ANOVA and post-hoc Tukey's test. A p value of less then 0.05 was used to indicate statistical significance. Two studies were conducted with the following Compound 102.
In study 1, mice were dosed with Compound 102 and glucose as follows:
In study 2, mice were dosed with Compound 102 and glucose as follows.
Study 3 tested Compound 102 and was conducted as follows: […]

Data set [2] deals with Male CD1/ICR mice fed Western Diet. The data set is described as follows: Western Diet study (weight, food intake, fat pads). The data set is classed as in vivo. How it is done: Male CD1/ICR mice were obtained from Harlan. The study was started when mice were 8 weeks of age. Prior to initiation of the study mice fasted for 24 hours. Mice were fed “Western Diet” that was designed to approximate the “typical” human diet of North America and Europe (Research Diets; New Brunswick, N.J.; Western Diet composition). The Western Diet contained greater than 5 times more fat than normal chow. [table] Mice were weighed daily beginning from the start of the 24 hour fasting period. Food intake was monitored continuously. Mice were bled by retroorbital eyebleed on days 7, 14, 21 and 28 after the initiation of the study. On day of REB, mice were dosed 1× with full dose 1 hour prior to bleed. Fat pads were dissected at the end of the study (day 31) weighed and frozen. The following fat pads were dissected: brown, inguinal, axial, mesenteric, renal, and epidydimal. Data were averaged and analyzed by ANOVA followed by a post-hoc Tukey's test with a p value of less then 0.05 indicating a statistical difference.

A further data set has as its system mice on western diet. The experiment in a line: Leptin level in Western Diet treated animals (ELISA). It is filed as in vivo. The settings on record: mice fed western diet, bled days 7, 14, 21, 28, dosed 1 hour prior to bleed. The protocol: Blood from mice that were on western diet (Compound 102) were analyzed for leptin level. Mice were bled by retroorbital eyebleed on days 7, 14, 21 and 28 after the initiation of the study. On day of REB, mice were dosed once with full dose 1 hour prior to bleed. Leptin level was determined by ELISA (R&D Systems) as per directions. Data are expressed as the average±SEM. Data were averaged and analyzed by ANOVA followed by a post-hoc Tukey's test with a p value of less then 0.05 indicating a statistical difference.

In data set [3] the test system is Db/Db Leptin Receptor deficient diabetes/metabolic syndrome animal model. The experiment in a line: In vivo Db/Db mouse study, glucose study. As to conditions: Db/Db mice. How it is done: (§1) Db/Db and Db/lean mice were obtained from Harlan at 6 weeks of age. Mice were housed 3 per cage and fed ad libitum normal rodent chow. Mice were kept on a 12 hour light:dark cycle.
(§2) The study was initiated when mice reached an age of 8 weeks and their baseline blood glucose level was greater than 200 mg/dl. Compound 102 was formulated in PBS:2N HCl (99:1) at concentrations of 0.5, 1.5 and 5 mg/ml. Mice were dosed at volumes of 10 ml/kg to produce doses of 5, 15 and 50 mg/kg/dose. Mice were dosed twice per day at an 8 hour interval (8 am and 4 pm) during the light cycle.
For the acute blood glucose measurements, blood glucose level was measured after the animals received their first dose of Compound 102. Blood glucose level was measured two hours after this initial injection.
In this study, mice were dosed with Compound 102 IP, twice/day over the course of four weeks.

For another data set, the system named is Db/Db mice. The experiment in a line: In vivo Db/Db mouse study, obesity study. The settings on record: 28 days. How it is done: as §1, §2
Mice were administered vehicle or drug (i.e., Compound 102) (5, 15, and 50 mg/kg) twice per day (bid) for the 28 days. Mouse weight and food intake were monitored daily. Food intake is reported as food intake (grams) per mouse per 24 hour period.

The subject of a further data set is Zucker rats. The data set is described as follows: In vivo Zucker rat glucose study. As to conditions: 30 mg/kg ip, glucose 1.5 g/kg oral gavage, 30 and 270 minutes after glucose. The protocol: Zucker rats and corresponding lean rats were supplied by Harlan. Rats were fed a normal diet, ad libitum, and kept on a 12 hour light/dark cycle. Rats were housed 3 per cage. At 12 weeks of age, Zucker rats were administered Compound 102 at a concentration of 30 mg/kg (ip). Blood glucose level was measured 30 minutes after administration. Forty-five minutes after drug administration, animals were administered a glucose solution (1.5 g/kg) by oral gavage. Blood glucose level was measured every 30 minutes after gavage for 4.5 hours. There were 3 groups with 3 animals per group: 1) 3 Zucker leans (no drug; no glucose treatment); 2) Zucker vehicle treated group (glucose challenged); and 3) Zucker Compound 102 treatment (30 mg/kg); glucose challenged.

A further data set relates to IRS-1. The data set is described as follows: IRS-1 phosphorylation in vivo (immunoprecipitation). The settings on record: mice, fat pads and livers removed ninety minutes after drug administration, FIGS. 2A, 2B. How it is done: (§3) The following studies were conducted to determine whether Compound 102 activated lyn kinase in vivo. This determination was conducted by measuring activation (phosphorylation) of downstream substrates of Lyn in mice treated with Compound 102. Referring to FIGS. 2A, 2B, and 3, mice were administered Compound 102 at the indicated dose. Ninety minutes after drug administration, fat pads and livers were removed. IRS-1 phosphorylation was measured by immunoprecipitation using an anti-phosphotyrosine antibody and probing with either IRS-1 or AKT antibody.

A further data set has as its system AKT. The experiment in a line: AKT phosphorylation in vivo (immunoprecipitation). The settings on record: mice, fat pads and livers removed ninety minutes after drug administration, FIG. 3. The protocol: as §3
The mark [4] stands for this setting: study 1, mice, single administration, 30 mg/kg.
[5] abbreviates: IP twice/day over four weeks, 5, 15, 50 mg/kg.

Experimental findings from US20100197710A1, “Methods Of Activating IRS-1 And AKT” (MELIOR PHARMACEUTICALS I, INC., priority 2007, published 2010) are described below.

As to `CN(C)C(=N)N=C(N)N` [metformin, reference compound], the blood glucose load entry in data set [1] (validation of the mouse model of hyperglycemia) was “effectively reduce”.

For `Cc1cccc(Oc2cnc(=O)[nH]c2)c1` [Compound 102], in data set [1] (setting [4]), the “normal blood glucose level (pre-glucose loading)” value is recorded as “significantly decreased” and the “time after drug administration at which significance was lost” value came to 90 min. The “blood glucose level produced by oral glucose administration” value in data set [1] (study 1, mice, single administration, 30 mg/kg, oral glucose 1.5 g/kg) is given as “significantly attenuated”. In data set [1] (study 2, mice, increased (repeated) dosing), the “effect on blood glucose level” value is on record as “more dramatic effect”. Besides, in data set [2] (fat pads dissected day 31), the “brown, axial, inguinal, renal and epididymal fat pad increases” value is on record as “significantly reduced”. Further, in data set [2] (highest dose tested 30 mg/kg/day), the “weight gain (absolute weight and weight change from day 0)” value was “significantly reduced”. Further, the blood leptin level result in the data set on mice on western diet is “reduced leptin level to those fed a normal diet”. For the same molecule, the “acute blood glucose response in dose groups” value in data set [3] (15 mg/kg and 50 mg/kg dose groups, upon study initiation and on weekly blood glucose testing) is listed as “acute dose response”. In addition, in data set [3] (setting [5]), the animal weight gain entry was “dose dependent effect” and the blood glucose level result is recorded as “dose dependent effect”. Also, the “blood glucose level following acute administration” value in data set [3] (measured two hours after first dose) is “reduce blood glucose level”. Besides, the weight-gain response result in the data set with Db/Db mice (chronic administration, 5, 15, 50 mg/kg bid) was “significantly inhibited”. Besides, the defecation entry in the data set on Db/Db mice (chronic administration, bid) is on record as “defecated normally”. Besides, in the data set with Zucker rats, the “blood glucose level after oral glucose administration” value is on record as “reduced blood glucose level”. The “phosphorylation of IRS-1” value with IRS-1 was “increases”. In addition, the “phosphorylation of AKT” value in the data set with AKT is reported as “increases”.

For the molecule `O=c1ncc(Oc2cccc(Cl)c2)c[nH]1` [Compound 105], in data set [1] (mice, single dose of 2 or 10 mg/kg), the “baseline blood glucose level” value is reported as “significantly depressed”. Also, the “blood glucose level at all time points after administration” value in data set [1] (mice, single dose of 2 or 10 mg/kg, P<0.05) is “significantly (P<0.05) reduced”.
